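Method: 48-hour compound exposure of cells in 96-well plates, five concentrations, linear interpolation of endpoints. GI50 = concentration required for 50% inhibition of growth.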 Active and inactive are the calls of the source. No stated cut-off is given here; in the data, active = GI50 up to about 1.1 µM and inactive = higher.

Common to all, as to assay: NCI tumour cell line growth inhibition, 48 h
Assay [1] relates to 786-0.
For assay [2], the system named is A498.
The subject of assay [3] is A549.
Assay [4] has as its system CAKI-1.
Assay [5] concerns CCRF-CEM.
Assay [6] concerns COLO 205.
Assay [7] has as its system HCT-15.
Assay [8] concerns HT-29.
In assay [9] the test system is Hs-578T.
In assay [10] the test system is MOLT-4.
Assay [11] has as its system SF-539.
For assay [12], the system named is SK-MEL-28.
Assay [13] relates to SN12C.
Assay [14] deals with SNB-75.
The subject of assay [15] is SW-620.
Assay [16] concerns UACC-257.
The subject of assay [17] is UACC-62.
Assay [18] relates to Malme-3M.
The subject of assay [19] is RXF 393.
In assay [20] the test system is SR.

With `CSc1scc2c1/C(=N/NC(N)=O)CCC2`, the GI50 in [1] was > 100 µM (inactive); in [2], 39.7 µM (inactive); in assay [3], 78.3 µM (inactive); in assay [4], 69.7 µM (inactive); in assay [5] it was 41.1 µM (inactive); in assay [6] it was > 100 µM (inactive). The GI50 in [7] was more than 100 µM; in [8], > 100 µM (inactive); in assay [9] it was 82.6 µM (inactive); in [10], 58.1 µM (inactive); in [11], > 100 µM (inactive); in assay [12], > 100 µM (inactive). Besides, the GI50 in assay [13] was > 100 µM (inactive); in [14], 36.7 µM (inactive); in [15], > 100 µM (inactive); in assay [16], > 100 µM (inactive); in [17] it was > 100 µM (inactive).
Regarding `CC1CCC2(O)C3(C)CC4(O)OC2(C1O)C1(O)C3(O)C(OC(=O)c2ccc[nH]2)C(O)(C(C)C)C41C` (stereo unspecified), the GI50 in assay [1], in [2], in assay [3], in assay [4], in [5] and in assay [6] was > 100 µM (inactive) throughout. For the same molecule, the GI50 in [7] was more than 100 µM; in [8], > 100 µM (inactive); in assay [9] it was > 100 µM (inactive); in [18] it was > 100 µM (inactive); in [19], > 100 µM (inactive); in assay [11], > 100 µM (inactive). The GI50 in assay [12], in assay [13], in assay [14], in assay [15], in [16] and in [17] was > 100 µM (inactive) each time.
Regarding `CCOC(=O)C1(C)CCc2sc(N)c(C#N)c21` (stereo unspecified), the GI50 in [1] was > 100 µM (inactive); in assay [2], > 100 µM (inactive); in [3], > 100 µM (inactive); in assay [5], > 100 µM (inactive); in assay [6], > 100 µM (inactive); in assay [7], more than 100 µM. Also, the GI50 in assay [8], in assay [9], in assay [10], in [18], in assay [19] and in [12] was > 100 µM (inactive) throughout. For the same molecule, the GI50 in [13], in assay [14], in [15], in [16] and in assay [17] was > 100 µM (inactive) in each case.
Consider `CC(=O)O[C@H]1C(=O)O[C@@H]2C[C@H]3C(C)=CC(=O)[C@@H](O)[C@]3(C)[C@H]3[C@@]4(O)OC[C@]32[C@@H]1[C@@H](C)[C@H]4O`, for which the GI50 in [1] is 0.0238 µM (active); in assay [2], 0.103 µM (active); in [4], 0.265 µM (active); in assay [5] it was 0.0328 µM (active); in assay [6] it was 0.188 µM (active); in assay [7], 0.0759 µM. Besides, the GI50 in assay [8] is 0.0518 µM (active); in assay [9] it was 0.0175 µM (active); in assay [10] it was 0.022 µM (active); in assay [18], 0.0232 µM (active); in assay [19], 0.0301 µM (active); in [11], 0.0246 µM (active). Further, the GI50 in assay [12] was 0.0281 µM (active); in assay [13], 0.0767 µM (active); in assay [14], 0.0366 µM (active); in [15] it was 0.0527 µM (active); in [16], 0.0395 µM (active); in assay [17], 0.0434 µM (active).
`COc1cc([C@@H]2c3cc4c(cc3[C@@H](OC3OC5COC(C)OC5C(OC(=O)CN5CCN(C)CC5)C3OC(=O)CN3CCN(C)CC3)C3COC(=O)[C@@H]32)OCO4)cc(OC)c1OC(=O)CN1CCN(C)CC1` (stereo partly specified): the GI50 in [1] was 21.9 µM (inactive); in [4] it was 37.7 µM (inactive); in assay [5], 9.29 µM (inactive); in assay [6], > 100 µM (inactive); in assay [7], more than 100 µM; in [8], > 100 µM (inactive). Further, the GI50 is 56 µM (inactive) in [9]; 2.49 µM (inactive) in assay [10]; 61.7 µM (inactive) in assay [18]; > 100 µM (inactive) in [19]; 23.1 µM (inactive) in [11]; 44.1 µM (inactive) in [13]. Besides, the GI50 in assay [14] was 28.5 µM (inactive); in assay [15], 41.8 µM (inactive); in assay [16], > 100 µM (inactive); in assay [17] it was > 100 µM (inactive).
For the molecule `COc1cc(/C=C2\S/C(=N/Nc3nc(-c4ccc(Br)cc4)cs3)NC2=O)cc(OC)c1OC`, the GI50 in assay [1] was 9.44 µM (inactive); in [3], 13.6 µM (inactive); in assay [4], 18.2 µM (inactive); in assay [5], 2.45 µM (inactive); in [6], 26.8 µM (inactive); in [7], 11.3 µM. Also, the GI50 in assay [8] is 18.4 µM (inactive); in assay [9], 11.9 µM (inactive); in assay [10], 3.78 µM (inactive); in [19], 4.07 µM (inactive); in assay [11] it was 8.83 µM (inactive); in [12], 10.4 µM (inactive). The GI50 in [13] is 28.6 µM (inactive); in [14], 9.2 µM (inactive); in [15] it was 8.55 µM (inactive); in assay [16], 18.2 µM (inactive); in assay [17], 11.1 µM (inactive).
As to `C[C@@H]1C[C@@]2(O[C@@H]2C)C(=O)O[C@@H]2CCN3CC=C(COC(=O)[C@]1(C)O)[C@H]23`, the GI50 in assay [1], in assay [2], in [3], in [4], in assay [5] and in assay [6] was > 100 µM (inactive) in each case. Besides, the GI50 was more than 100 µM in assay [7]; > 100 µM (inactive) in [8]; > 100 µM (inactive) in assay [9]; > 100 µM (inactive) in assay [10]; > 100 µM (inactive) in [18]; > 100 µM (inactive) in [11]. The GI50 in assay [12], in assay [13], in assay [14], in assay [15], in [16] and in [17] was > 100 µM (inactive) each time.
`O=C(O)c1ccccc1NC(=S)c1ccccc1`: the GI50 was 47.4 µM (inactive) in [1]; 61.9 µM (inactive) in assay [2]; 51.3 µM (inactive) in [3]; 43 µM (inactive) in assay [4]; 45.5 µM (inactive) in assay [5]; 39.1 µM (inactive) in [6]. The GI50 was 30.3 µM in assay [7]; 37.8 µM (inactive) in assay [8]; 53.7 µM (inactive) in [9]; 67.5 µM (inactive) in assay [10]; 19.1 µM (inactive) in [18]; 51.9 µM (inactive) in assay [19]. Further, the GI50 in assay [11] was 44.4 µM (inactive); in assay [13] it was 66.4 µM (inactive); in assay [15] it was 46.5 µM (inactive); in [16], 29.7 µM (inactive); in assay [17] it was 30.3 µM (inactive).
On to `CC(=O)Oc1c(C)cc2c(c1C)C(C)(C)CN2C(=O)C(C)(C)C`, for which the GI50 is > 100 µM (inactive) in assay [1]; 55.6 µM (inactive) in assay [2]; 83.8 µM (inactive) in assay [3]; 65.9 µM (inactive) in [5]; 58.1 µM (inactive) in [6]; more than 100 µM in assay [7]. In addition, the GI50 in [8] was 33.1 µM (inactive); in assay [9], > 100 µM (inactive); in [10], 25.4 µM (inactive); in assay [19] it was 84.9 µM (inactive); in assay [11], > 100 µM (inactive); in assay [12], > 100 µM (inactive). Also, the GI50 in [13] was > 100 µM (inactive); in [14], 0.504 µM (active); in assay [15] it was > 100 µM (inactive); in assay [16] it was > 100 µM (inactive); in assay [17], > 100 µM (inactive).
As to `CCCCOC(=O)c1cc(C(=CCC[C@H]2CC[C@@]3(C)[C@@H](CC[C@@H]4[C@@H]3CC[C@]3(C)[C@@H](C(C)CCCC(C)C)CC[C@@H]43)C2)c2cc(Cl)c(O)c(C(=O)OCCCC)c2)cc(Cl)c1O` (stereo partly specified), the GI50 in assay [1] is > 50 µM (inactive); in assay [2], > 50 µM (inactive); in [4], > 50 µM (inactive); in assay [5], > 50 µM (inactive); in assay [6] it was > 50 µM (inactive); in [7], more than 50 µM. The GI50 in assay [8] was > 50 µM (inactive); in [9] it was > 50 µM (inactive); in assay [10] it was > 5 µM (inactive); in assay [13] it was > 50 µM (inactive); in [14], > 50 µM (inactive); in assay [15] it was > 50 µM (inactive). In addition, the GI50 in assay [17] is > 50 µM (inactive).
Turning to `c1cncc(C2(c3cc4ccccc4[nH]3)COCO2)c1` (stereo unspecified), the GI50 was > 100 µM (inactive) in [1]; 94.2 µM (inactive) in assay [3]; > 100 µM (inactive) in assay [4]; 10.5 µM (inactive) in assay [5]; 19.1 µM (inactive) in assay [6]; more than 100 µM in assay [7]. Moreover, the GI50 is > 100 µM (inactive) in assay [8]; > 100 µM (inactive) in assay [9]; 97.9 µM (inactive) in assay [10]; > 100 µM (inactive) in assay [18]; > 100 µM (inactive) in [19]; > 100 µM (inactive) in [11]. Further, the GI50 in assay [12] was > 100 µM (inactive); in assay [14] it was > 100 µM (inactive); in assay [20], > 100 µM (inactive); in assay [15], > 100 µM (inactive); in assay [16], > 100 µM (inactive); in [17] it was 96.8 µM (inactive).

(Values after ChEMBL document CHEMBL1201862, “PubChem BioAssay data set” (2004).)
